Values quoted from earlier work in US20240238221A1, “[…] TREATING NEUROPATHIC PAIN IN COVID-19 PATIENTS” (Grünenthal GmbH, priority 2021, published 2024).

Columns and labels:
[1] = at analgesic doses vs. Morphine
[2] = tested on: UGT1A6, UGT1A9 and UGT2B7; settings: mediated via UGT mainly UGT1A6, UGT1A9 and UGT2B7 isoforms
serotonin reuptake = settings: unlike tramadol
[3] = in the investigated dose ranges; vs. morphine, oxycodone or hydromorphone

CC[C@@H](c1cccc(O)c1)[C@@H](C)CN(C)C [Tapentadol]
immunosuppressive activity [1]: lower immunosuppressive activity
risk of drug-drug interactions at the CYP450 level (CYP450): low risk
major elimination pathway [2]: conjugation with glucuronic acid
serotonin reuptake inhibition (serotonin reuptake): only weak serotonin reuptake inhibition
analgesic efficacy [3]: comparable to that of typical strong opioids
